# Experimental data as given in PubChem BioAssay AID248 (DTP/NCI, 2004).
# Several values for one entry are separate records, joined by “and”; a condition that tells them apart may be missing. Equal entries are not always repeated. Toxic doses and inconclusive results are not listed.
# System: L1210 leukemia ip in BDF1 mice, survival T/C
# Assay: NCI In Vivo Anticancer Drug Screen. Data for tumor model L1210 Leukemia (intraperitoneal) in B6D2F1 (BDF1) mice
# Details: higher = longer survival
# In short: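 Tumor was transplanted into mice, which were then dosed with test compound or vehicle alone. Survival was recorded for each group, and the treated figure was expressed relative to the control figure.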
# [1] = endpoint: mean survival time, dose: 50.0 mg/kg/injection, schedule: Q01DX001 (ip), vehicle: saline
# [2] = endpoint: mean survival time, dose: 100.0 mg/kg/injection, schedule: Q01DX001 (ip), vehicle: saline
# [3] = endpoint: mean survival time, dose: 100.0 mg/kg/injection, schedule: Q04DX003 (ip), vehicle: saline
# [4] = endpoint: mean survival time, dose: 200.0 mg/kg/injection, schedule: Q01DX001 (ip), vehicle: saline
# [5] = endpoint: mean survival time, dose: 200.0 mg/kg/injection, schedule: Q04DX003 (ip), vehicle: saline
# [6] = endpoint: mean survival time, dose: 400.0 mg/kg/injection, schedule: Q01DX001 (ip), vehicle: saline
# [7] = endpoint: mean survival time, dose: 400.0 mg/kg/injection, schedule: Q01DX009 (ip), vehicle: saline
# [8] = endpoint: mean survival time, dose: 400.0 mg/kg/injection, schedule: Q04DX003 (ip), vehicle: saline
compound,measurement,setting,value
NCCc1ccc(O)c(O)c1,T/C,"endpoint: mean survival time, dose: 6.25 mg/kg/injection, schedule: Q03HX024 (ip), vehicle: saline",101 % of control
same,T/C,"endpoint: mean survival time, dose: 12.5 mg/kg/injection, schedule: Q03HX004 (ip), vehicle: saline",113 % of control
same,T/C,"endpoint: mean survival time, dose: 12.5 mg/kg/injection, schedule: Q03HX024 (ip), vehicle: saline",87 % of control
same,T/C,"endpoint: mean survival time, dose: 25.0 mg/kg/injection, schedule: Q01DX001 (ip), vehicle: saline",104 % of control
same,T/C,"endpoint: mean survival time, dose: 25.0 mg/kg/injection, schedule: Q01DX009 (ip), vehicle: Klucel (hydroxypropylcellulose) (HPC)",105 % of control
same,T/C,"endpoint: mean survival time, dose: 25.0 mg/kg/injection, schedule: Q03HX004 (ip), vehicle: saline",113 % of control
same,T/C,"endpoint: mean survival time, dose: 25.0 mg/kg/injection, schedule: Q03HX024 (ip), vehicle: saline",106 % of control
same,T/C,"endpoint: mean survival time, dose: 25.0 mg/kg/injection, schedule: Q04DX003 (ip), vehicle: saline",94 % of control
same,T/C,[1],100 % of control
same,T/C,"endpoint: mean survival time, dose: 50.0 mg/kg/injection, schedule: Q01DX009 (ip), vehicle: Klucel (hydroxypropylcellulose) (HPC)",114 % of control
same,T/C,"endpoint: mean survival time, dose: 50.0 mg/kg/injection, schedule: Q01DX009 (ip), vehicle: saline",118 % of control and 119 % of control
same,T/C,"endpoint: mean survival time, dose: 50.0 mg/kg/injection, schedule: Q03HX004 (ip), vehicle: saline",124 % of control
same,T/C,"endpoint: mean survival time, dose: 50.0 mg/kg/injection, schedule: Q03HX024 (ip), vehicle: saline",115 % of control
same,T/C,"endpoint: mean survival time, dose: 50.0 mg/kg/injection, schedule: Q04DX003 (ip), vehicle: saline",94 % of control
same,T/C,[2],108 % of control
same,T/C,"endpoint: mean survival time, dose: 100.0 mg/kg/injection, schedule: Q03HX024 (ip), vehicle: saline",115 % of control
same,T/C,[3],97 % of control
same,T/C,"endpoint: mean survival time, dose: 150.0 mg/kg/injection, schedule: Q01DX009 (ip), vehicle: saline",104 % of control
same,T/C,[4],99 % of control
same,T/C,[5],101 % of control
same,T/C,[6],115 % of control
same,T/C,"endpoint: mean survival time, dose: 400.0 mg/kg/injection, schedule: Q01DX009 (ip), vehicle: Klucel (hydroxypropylcellulose) (HPC)",152 % of control
same,T/C,[7],123 % of control
same,T/C,[8],94 % of control
same,T/C,"endpoint: mean survival time, dose: 600.0 mg/kg/injection, schedule: Q01DX009 (ip), vehicle: saline",103 % of control
same,T/C,"endpoint: mean survival time, dose: 800.0 mg/kg/injection, schedule: Q01DX009 (ip), vehicle: saline",122 % of control
same,T/C,"endpoint: mean survival time, dose: 800.0 mg/kg/injection, schedule: Q04HX003 (ip), vehicle: saline",108 % of control
same,T/C,"endpoint: mean survival time, dose: 1600.0 mg/kg/injection, schedule: Q04HX003 (ip), vehicle: saline",104 % of control
same,T/C,"endpoint: median survival time, dose: 20.0 mg/kg/injection, schedule: Q04HX036 (ip), vehicle: saline",92 % of control
same,T/C,"endpoint: median survival time, dose: 40.0 mg/kg/injection, schedule: Q01DX009 (sc), vehicle: saline",98 % of control
same,T/C,"endpoint: median survival time, dose: 40.0 mg/kg/injection, schedule: Q04HX020 (ip), vehicle: saline",114 % of control
same,T/C,"endpoint: median survival time, dose: 40.0 mg/kg/injection, schedule: Q04HX036 (ip), vehicle: saline",106 % of control
same,T/C,"endpoint: median survival time, dose: 40.0 mg/kg/injection, schedule: Q11DX017 (ip), vehicle: saline",104 % of control
same,T/C,"endpoint: median survival time, dose: 40.0 mg/kg/injection, schedule: Q12HX018 (ip), vehicle: saline",114 % of control
same,T/C,"endpoint: median survival time, dose: 80.0 mg/kg/injection, schedule: Q01DX009 (ip), vehicle: saline",118 % of control
same,T/C,"endpoint: median survival time, dose: 80.0 mg/kg/injection, schedule: Q01DX009 (oral), vehicle: saline",97 % of control
same,T/C,"endpoint: median survival time, dose: 80.0 mg/kg/injection, schedule: Q01DX009 (sc), vehicle: saline",104 % of control
same,T/C,"endpoint: median survival time, dose: 80.0 mg/kg/injection, schedule: Q02DX005 (ip), vehicle: saline",111 % of control
same,T/C,"endpoint: median survival time, dose: 80.0 mg/kg/injection, schedule: Q04HX020 (ip), vehicle: saline",123 % of control
same,T/C,"endpoint: median survival time, dose: 80.0 mg/kg/injection, schedule: Q04HX036 (ip), vehicle: saline",122 % of control
same,T/C,"endpoint: median survival time, dose: 80.0 mg/kg/injection, schedule: Q11DX017 (ip), vehicle: saline",120 % of control
same,T/C,"endpoint: median survival time, dose: 80.0 mg/kg/injection, schedule: Q12HX010 (ip), vehicle: saline",121 % of control
same,T/C,"endpoint: median survival time, dose: 160.0 mg/kg/injection, schedule: Q01DX009 (oral), vehicle: saline",104 % of control
same,T/C,"endpoint: median survival time, dose: 160.0 mg/kg/injection, schedule: Q01DX009 (sc), vehicle: saline",96 % of control
same,T/C,"endpoint: median survival time, dose: 160.0 mg/kg/injection, schedule: Q04HX036 (ip), vehicle: saline",108 % of control
same,T/C,"endpoint: median survival time, dose: 320.0 mg/kg/injection, schedule: Q01DX009 (oral), vehicle: saline",105 % of control
same,T/C,"endpoint: median survival time, dose: 320.0 mg/kg/injection, schedule: Q01DX009 (sc), vehicle: saline",103 % of control
same,T/C,"endpoint: median survival time, dose: 320.0 mg/kg/injection, schedule: Q02DX005 (ip), vehicle: saline",122 % of control
same,T/C,"endpoint: median survival time, dose: 640.0 mg/kg/injection, schedule: Q01DX009 (oral), vehicle: saline",106 % of control
same,T/C,"endpoint: median survival time, dose: 640.0 mg/kg/injection, schedule: Q01DX009 (sc), vehicle: saline",103 % of control
same,T/C,"endpoint: median survival time, dose: 640.0 mg/kg/injection, schedule: Q02DX005 (ip), vehicle: saline",124 % of control
CC1(C)OC(=O)C(C(=O)O)C1c1ccccc1 (stereo unspecified),T/C,[2],97 % of control
same,T/C,[4],94 % of control
Fc1c(F)c(F)c(Oc2c(F)c(F)c3c(c2F)C2C=CC3O2)c(F)c1F (stereo unspecified),T/C,"endpoint: mean survival time, dose: 50.0 mg/kg/injection, schedule: Q04DX003 (ip), vehicle: Klucel (hydroxypropylcellulose) (HPC)",95 % of control
same,T/C,"endpoint: mean survival time, dose: 100.0 mg/kg/injection, schedule: Q04DX003 (ip), vehicle: Klucel (hydroxypropylcellulose) (HPC)",93 % of control
same,T/C,"endpoint: mean survival time, dose: 200.0 mg/kg/injection, schedule: Q04DX003 (ip), vehicle: Klucel (hydroxypropylcellulose) (HPC)",93 % of control
CCCCCCCCCCCCOCCOCCOCC(N)=O,T/C,"endpoint: mean survival time, dose: 100.0 mg/kg/injection, schedule: Q01DX009 (ip), vehicle: saline",104 % of control
same,T/C,[3],97 % of control
same,T/C,"endpoint: mean survival time, dose: 200.0 mg/kg/injection, schedule: Q01DX009 (ip), vehicle: saline",100 % of control
same,T/C,[5],109 % of control
same,T/C,[7],96 % of control
same,T/C,[8],97 % of control
CCCSc1ccccc1N1CCNCC1,T/C,[1],103 % of control
same,T/C,[2],101 % of control
same,T/C,[4],101 % of control
same,T/C,[6],103 % of control
